Results taken from patent publication US10357493B2, “Metalloenzyme inhibitor compounds” (Selenity Therapeutics (Bermuda), Ltd., priority 2017, dated 2019).
pIC50: −log10 of the molar value. Read-outs that look alike come from different tables or passages of the source. Values belong to the molecule of their own block, whether it stands above or below them.

What was measured:
HDAC5 = HDAC5 (Homo sapiens (Human), UniProt Q9UQL6); experiment: HDAC5 enzymatic assay; assay type: biochemical; conditions: selectivity profile; read-out: HDAC Enzyme IC50, HDAC 5
Protocol: (§1) All enzymatic reactions were conducted in duplicate at room temperature for 17 hours in a 50 μl mixture containing HDAC assay buffer (50 mM Tris-HCl, pH 7.4, 137 mM NaCl, 2.7 mM KCl, 0.05% Tween 20, 5 μg BSA), an HDAC substrate, an HDAC enzyme, and a test compound. Compound dilution was prepared ten-fold higher than the final concentration of the compounds with 10% DMSO in HDAC assay buffer and 5 μl of the dilution was added to a 50 μl reaction so that the final concentration of DMSO is 1% in all of reactions. After enzymatic reactions, 50 μl of HDAC Developer was added to each well and the plate was incubated at room temperature for an additional 20 minutes. Fluorescence intensity was measured at an excitation of 360 nm and an emission of 460 nm using a Tecan Infinite M1000 or Biotek Synergy microplate reader.
(§2) The fluorescent intensity data were analyzed using the computer software, Graphpad Prism. In the absence of the compound, the fluorescent intensity (Ft) in each data set was defined as 100% activity. In the absence of HDAC, the fluorescent intensity (Fb) in each data set was defined as 0% activity. The percent activity in the presence of each compound was calculated according to the following equation: % activity=(F−Fb)/(Ft−Fb), where F=the fluorescent intensity in the presence of the compound.
(§3) The values of % activity versus a series of compound concentrations were then plotted using non-linear regression analysis of Sigmoidal dose-response curve generated with the equation Y=B+(T−B)/1+10((Log EC50−X)×Hill Slope), where Y=percent activity, B=minimum percent activity, T=maximum percent activity, X=logarithm of compound and Hill Slope=slope factor or Hill coefficient. The IC50 value was determined by the concentration causing a half-maximal percent activity.
(§4) HDAC1 enzymatic assays contained 0.5 ng HDAC1 and 10 uM of HDAC substrate. HDAC2 enzymatic assays contained 0.5 ng HDAC2 and 10 uM of HDAC substrate. HDAC3 enzymatic assays contained 0.4 ng HDAC3/NCOR2 and 10 uM of HDAC substrate. HDAC4 enzymatic assays contained 0.02 ng HDAC4 and 2 uM of HDAC substrate. HDAC5 enzymatic assays contained 0.5 ng HDAC5 and 2 uM of HDAC substrate. HDAC6 enzymatic assays contained 2 ng HDAC6 and 10 uM of HDAC substrate. HDAC7 enzymatic assays contained 0.05 ng HDAC7 and 2 uM of HDAC substrate. HDAC8 enzymatic assays contained 5 ng HDAC8 and 2 uM of HDAC substrate. HDAC9 enzymatic assays contained 1 ng HDAC9 and 2 uM of HDAC substrate. HDAC10 enzymatic assays contained 75 ng HDAC10 and 10 uM of HDAC substrate. HDAC11 enzymatic assays contained 5 ng HDAC11 and 2 uM of HDAC substrate.

HDAC1 = HDAC1 (Homo sapiens (Human), UniProt Q13547); experiment: HDAC1 enzymatic assay; assay type: biochemical
In short: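 Compound inhibition of human HDAC1 (0.5 ng enzyme, 10 uM substrate) was assessed by fluorescence after developer treatment, excitation 360 nm and emission 460 nm. Percent activity was normalized to no-compound (100%) and no-enzyme (0%) controls, plotted against concentration, and fitted to a sigmoidal dose-response curve in Graphpad Prism to obtain IC50 at half-maximal activity.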

HDAC10 = HDAC10 (Homo sapiens (Human), UniProt Q969S8); experiment: HDAC10 enzymatic assay; assay type: biochemical; conditions: selectivity profile; read-out: HDAC Enzyme IC50, HDAC 10
Protocol: as §1, §2, §3, §4

HDAC6 = HDAC6 (Homo sapiens (Human), UniProt Q9UBN7); experiment: HDAC6 enzymatic assay; assay type: biochemical
In short: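 Following a 17 hour room-temperature incubation of 2 ng HDAC6 with 10 uM substrate and compound, 50 μl developer was added for another 20 minutes, and fluorescence (excitation 360 nm, emission 460 nm) was recorded. Activity was normalized to no-compound (100%) and no-enzyme (0%) wells, and IC50 came from sigmoidal dose-response fitting in Graphpad Prism.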

HDAC3/NCOR2 = HDAC3/NCOR2 (Homo sapiens (Human), UniProt O15379); experiment: HDAC3 enzymatic assay; assay type: biochemical; conditions: selectivity profile; read-out: HDAC Enzyme IC50, HDAC 3
Protocol: as §1, §2, §3, §4

HDAC8 = HDAC8 (Homo sapiens (Human), UniProt Q9BY41); experiment: HDAC8 enzymatic assay; assay type: biochemical; conditions: selectivity profile; read-out: HDAC Enzyme IC50, HDAC 8
Protocol: as §1, §2, §3, §4

HDAC4 = HDAC4 (Homo sapiens (Human), UniProt P56524); experiment: HDAC4 enzymatic assay; assay type: biochemical; conditions: selectivity profile; read-out: HDAC Enzyme IC50, HDAC 4
Protocol: as §1, §2, §3, §4

[1] = Mouse Pharmacokinetics, oral single dose; assay type: in vivo, male Swiss Albino mice; conditions: male, Swiss Albino, plasma, 5 mg/kg, formulation by footnote: a 20% CremEL in H20, b 1% CMC in water, c 2% DMSO, 0.2% Tween80, 97.8% of 1% CMC
Protocol: Example 187: Mouse Pharmacokinetics
A dose of 5 mg/kg in an appropriate formulation was administered by oral gavage to fasted male Swiss Albino mice (n=3), and the plasma was collected at 0, 0.25, 0.5, 1, 2, 4, 8, and 24 h. Plasma levels were measured by HPLC/MS/MS methods and the pharmacokinetic parameters were determined for individual animals from plasma concentration-time data using noncompartmental model 200-202 in Phoenix WinNonlin 6.3.

HDAC9 = HDAC9 (Homo sapiens (Human), UniProt Q9UKV0); experiment: HDAC9 enzymatic assay; assay type: biochemical; conditions: selectivity profile; read-out: HDAC Enzyme IC50, HDAC 9
Protocol: as §1, §2, §3, §4

HDAC7 = HDAC7 (Homo sapiens (Human), UniProt Q8WUI4); experiment: HDAC7 enzymatic assay; assay type: biochemical; conditions: selectivity profile; read-out: HDAC Enzyme IC50, HDAC 7
Protocol: as §1, §2, §3, §4

HDAC2 = HDAC2 (Homo sapiens (Human), UniProt Q92769); experiment: HDAC2 enzymatic assay; assay type: biochemical; conditions: selectivity profile; read-out: HDAC Enzyme IC50, HDAC 2
Protocol: as §1, §2, §3, §4

HDAC11 = HDAC11 (Homo sapiens (Human), UniProt Q96DB2); experiment: HDAC11 enzymatic assay; assay type: biochemical; conditions: selectivity profile; read-out: HDAC Enzyme IC50, HDAC 11
Protocol: as §1, §2, §3, §4

[2] = selectivity profile, read-out: HDAC Enzyme IC50, HDAC 1
[3] = selectivity profile, read-out: HDAC Enzyme IC50, HDAC 6

Chain of HDAC5 (Q9UQL6 whole entry, species assumed): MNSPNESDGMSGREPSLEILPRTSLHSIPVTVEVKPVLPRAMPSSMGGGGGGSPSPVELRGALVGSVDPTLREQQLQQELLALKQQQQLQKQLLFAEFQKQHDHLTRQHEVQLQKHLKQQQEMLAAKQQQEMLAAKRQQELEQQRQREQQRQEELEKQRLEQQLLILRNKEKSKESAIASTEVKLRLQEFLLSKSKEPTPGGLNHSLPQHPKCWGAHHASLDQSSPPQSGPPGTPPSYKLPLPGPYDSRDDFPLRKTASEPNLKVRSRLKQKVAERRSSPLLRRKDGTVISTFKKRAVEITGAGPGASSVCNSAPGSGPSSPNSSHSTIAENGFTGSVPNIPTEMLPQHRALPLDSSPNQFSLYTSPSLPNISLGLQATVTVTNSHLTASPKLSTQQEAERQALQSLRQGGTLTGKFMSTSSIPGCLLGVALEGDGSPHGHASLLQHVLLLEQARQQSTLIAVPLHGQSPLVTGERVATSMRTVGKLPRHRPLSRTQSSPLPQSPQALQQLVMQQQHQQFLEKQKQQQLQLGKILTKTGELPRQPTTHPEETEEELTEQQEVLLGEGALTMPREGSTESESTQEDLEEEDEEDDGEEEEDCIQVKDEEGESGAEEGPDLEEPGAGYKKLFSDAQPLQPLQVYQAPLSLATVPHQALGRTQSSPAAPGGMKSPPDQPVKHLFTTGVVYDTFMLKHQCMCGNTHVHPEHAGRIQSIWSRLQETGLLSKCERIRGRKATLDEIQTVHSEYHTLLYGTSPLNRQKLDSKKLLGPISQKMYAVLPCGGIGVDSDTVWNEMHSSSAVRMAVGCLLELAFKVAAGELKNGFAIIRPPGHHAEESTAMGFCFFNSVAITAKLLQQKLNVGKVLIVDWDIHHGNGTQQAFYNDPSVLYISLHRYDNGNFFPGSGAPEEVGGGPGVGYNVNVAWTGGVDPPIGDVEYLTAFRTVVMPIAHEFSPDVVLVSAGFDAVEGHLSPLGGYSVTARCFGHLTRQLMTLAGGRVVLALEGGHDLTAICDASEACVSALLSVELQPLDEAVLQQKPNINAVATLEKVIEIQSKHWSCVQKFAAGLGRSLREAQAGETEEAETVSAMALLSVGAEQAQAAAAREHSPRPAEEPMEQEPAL
Chain of HDAC2 (Q92769 whole entry, species assumed): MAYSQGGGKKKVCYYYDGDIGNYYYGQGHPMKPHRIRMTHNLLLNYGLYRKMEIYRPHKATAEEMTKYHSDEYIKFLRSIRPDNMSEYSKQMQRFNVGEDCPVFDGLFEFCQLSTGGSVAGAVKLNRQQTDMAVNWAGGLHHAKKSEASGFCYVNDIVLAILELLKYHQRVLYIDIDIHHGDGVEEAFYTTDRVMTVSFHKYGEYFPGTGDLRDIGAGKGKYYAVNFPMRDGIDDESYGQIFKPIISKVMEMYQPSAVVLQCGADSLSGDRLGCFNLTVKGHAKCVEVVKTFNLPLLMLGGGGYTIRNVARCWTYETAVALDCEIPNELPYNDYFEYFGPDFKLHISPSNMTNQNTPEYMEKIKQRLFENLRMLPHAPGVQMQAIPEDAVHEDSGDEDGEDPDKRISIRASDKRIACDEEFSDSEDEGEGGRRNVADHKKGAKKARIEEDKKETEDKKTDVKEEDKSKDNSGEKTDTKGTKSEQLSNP
Chain of HDAC4 (P56524 whole entry, species assumed): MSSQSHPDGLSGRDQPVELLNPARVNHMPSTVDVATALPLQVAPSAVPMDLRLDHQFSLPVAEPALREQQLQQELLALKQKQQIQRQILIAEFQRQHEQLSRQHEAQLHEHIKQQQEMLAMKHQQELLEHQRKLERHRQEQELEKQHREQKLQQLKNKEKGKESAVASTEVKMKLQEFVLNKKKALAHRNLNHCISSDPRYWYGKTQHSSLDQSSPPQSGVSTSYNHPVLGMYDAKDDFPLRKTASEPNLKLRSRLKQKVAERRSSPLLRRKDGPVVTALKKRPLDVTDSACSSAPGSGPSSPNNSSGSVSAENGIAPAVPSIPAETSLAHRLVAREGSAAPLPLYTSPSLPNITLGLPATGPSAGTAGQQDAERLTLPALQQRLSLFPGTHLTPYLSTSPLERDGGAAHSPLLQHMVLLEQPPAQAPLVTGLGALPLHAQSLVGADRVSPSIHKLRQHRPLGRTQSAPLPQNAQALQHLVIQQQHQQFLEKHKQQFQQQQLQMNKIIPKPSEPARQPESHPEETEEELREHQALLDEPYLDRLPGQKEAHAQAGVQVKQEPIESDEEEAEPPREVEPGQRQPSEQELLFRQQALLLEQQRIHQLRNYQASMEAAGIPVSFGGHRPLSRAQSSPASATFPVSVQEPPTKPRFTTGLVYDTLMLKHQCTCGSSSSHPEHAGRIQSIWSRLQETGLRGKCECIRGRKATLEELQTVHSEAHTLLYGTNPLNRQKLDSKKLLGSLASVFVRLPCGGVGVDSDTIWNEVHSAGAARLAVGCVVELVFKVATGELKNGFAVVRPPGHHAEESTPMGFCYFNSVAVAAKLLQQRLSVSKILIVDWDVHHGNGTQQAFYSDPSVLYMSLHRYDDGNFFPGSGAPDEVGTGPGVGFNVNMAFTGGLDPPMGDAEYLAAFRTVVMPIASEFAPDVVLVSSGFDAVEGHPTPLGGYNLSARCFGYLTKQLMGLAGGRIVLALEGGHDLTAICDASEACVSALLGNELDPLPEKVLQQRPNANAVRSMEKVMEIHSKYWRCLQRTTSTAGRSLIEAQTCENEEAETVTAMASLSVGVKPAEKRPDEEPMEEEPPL
Chain of HDAC8 (Q9BY41 whole entry, species assumed): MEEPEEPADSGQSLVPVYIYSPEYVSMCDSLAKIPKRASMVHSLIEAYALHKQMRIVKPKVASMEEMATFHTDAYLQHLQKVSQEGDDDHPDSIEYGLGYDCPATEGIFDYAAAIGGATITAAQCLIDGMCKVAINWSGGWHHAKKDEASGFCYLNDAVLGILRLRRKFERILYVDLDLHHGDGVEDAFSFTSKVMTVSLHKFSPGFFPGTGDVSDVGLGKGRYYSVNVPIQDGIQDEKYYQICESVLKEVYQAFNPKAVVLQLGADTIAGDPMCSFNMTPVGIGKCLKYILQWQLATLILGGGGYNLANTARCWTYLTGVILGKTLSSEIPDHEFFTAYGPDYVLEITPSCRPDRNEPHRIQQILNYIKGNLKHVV
Chain of HDAC9 (Q9UKV0 whole entry, species assumed): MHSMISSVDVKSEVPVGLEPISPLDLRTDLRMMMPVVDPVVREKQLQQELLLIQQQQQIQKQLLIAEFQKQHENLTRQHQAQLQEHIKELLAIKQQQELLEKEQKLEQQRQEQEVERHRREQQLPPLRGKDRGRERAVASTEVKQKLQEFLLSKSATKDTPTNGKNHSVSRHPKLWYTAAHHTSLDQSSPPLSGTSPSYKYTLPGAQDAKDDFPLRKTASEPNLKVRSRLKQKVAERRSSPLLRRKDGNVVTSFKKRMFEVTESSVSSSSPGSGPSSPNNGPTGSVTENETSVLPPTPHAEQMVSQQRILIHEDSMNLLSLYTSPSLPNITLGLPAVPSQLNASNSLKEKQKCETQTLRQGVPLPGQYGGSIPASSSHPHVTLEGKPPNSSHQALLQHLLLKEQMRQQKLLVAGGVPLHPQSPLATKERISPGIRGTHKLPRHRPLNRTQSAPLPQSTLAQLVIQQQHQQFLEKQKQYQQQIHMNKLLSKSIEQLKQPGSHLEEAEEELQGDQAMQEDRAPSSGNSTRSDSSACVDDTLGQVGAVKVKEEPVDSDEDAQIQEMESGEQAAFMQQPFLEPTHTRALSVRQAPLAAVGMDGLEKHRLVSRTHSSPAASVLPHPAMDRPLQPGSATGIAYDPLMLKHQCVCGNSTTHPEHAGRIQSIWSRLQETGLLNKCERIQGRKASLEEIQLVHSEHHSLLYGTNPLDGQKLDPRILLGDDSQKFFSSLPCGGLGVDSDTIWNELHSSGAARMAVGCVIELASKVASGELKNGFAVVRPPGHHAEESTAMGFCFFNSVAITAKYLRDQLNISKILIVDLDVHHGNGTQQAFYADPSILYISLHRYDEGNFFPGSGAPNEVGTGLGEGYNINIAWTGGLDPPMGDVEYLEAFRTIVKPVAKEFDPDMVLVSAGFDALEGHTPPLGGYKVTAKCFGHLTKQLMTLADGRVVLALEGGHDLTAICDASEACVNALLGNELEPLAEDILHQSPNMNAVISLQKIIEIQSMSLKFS
Chain of HDAC1 (Q13547 whole entry): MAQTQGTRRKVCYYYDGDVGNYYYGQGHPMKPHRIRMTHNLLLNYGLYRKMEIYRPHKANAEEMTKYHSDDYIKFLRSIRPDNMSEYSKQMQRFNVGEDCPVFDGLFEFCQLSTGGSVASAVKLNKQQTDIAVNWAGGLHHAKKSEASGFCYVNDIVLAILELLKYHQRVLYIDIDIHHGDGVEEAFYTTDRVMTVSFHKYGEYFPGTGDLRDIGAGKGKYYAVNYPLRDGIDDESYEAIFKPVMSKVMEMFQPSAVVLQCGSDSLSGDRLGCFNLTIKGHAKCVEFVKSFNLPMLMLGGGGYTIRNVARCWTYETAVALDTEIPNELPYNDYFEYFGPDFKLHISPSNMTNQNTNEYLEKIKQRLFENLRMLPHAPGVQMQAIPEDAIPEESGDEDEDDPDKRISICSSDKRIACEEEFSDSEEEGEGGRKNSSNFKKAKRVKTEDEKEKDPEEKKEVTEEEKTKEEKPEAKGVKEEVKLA
Chain of HDAC11 (Q96DB2 whole entry, species assumed): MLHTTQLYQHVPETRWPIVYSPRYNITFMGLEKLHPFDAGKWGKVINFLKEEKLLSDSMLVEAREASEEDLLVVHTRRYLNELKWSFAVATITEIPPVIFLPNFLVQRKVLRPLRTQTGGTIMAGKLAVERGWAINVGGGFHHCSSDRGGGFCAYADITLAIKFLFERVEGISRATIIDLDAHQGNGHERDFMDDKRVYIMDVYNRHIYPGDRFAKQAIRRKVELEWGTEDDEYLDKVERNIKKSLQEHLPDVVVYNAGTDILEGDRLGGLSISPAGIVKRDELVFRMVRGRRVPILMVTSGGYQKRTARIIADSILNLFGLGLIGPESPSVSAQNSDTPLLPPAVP

Compound: CS(=O)(=O)N(CC(Nc1ncc(-c2nnc(C(F)F)o2)cn1)c1ccc(F)cc1)CC(F)(F)F (single isomer, unassigned) [118(+), N-(2-((5-(5-(difluoromethyl)-1,3,4-oxadiazol-2-yl)pyrimidin-2-yl)amino)-2-(4-fluorophenyl)ethyl)-N-(2,2,2-trifluoroethyl)methanesulfonamide]
- pIC50 (HDAC5): < 4.52
- pIC50 (HDAC1; read-out: Human HDAC1 IC50): < 4.52
- pIC50 (HDAC1; [2]): < 4.52
- pIC50 (HDAC10): < 4.52
- pIC50 (HDAC6; read-out: Human HDAC6 IC50): 7.54
- pIC50 (HDAC6; [3]): 7.54
- pIC50 (HDAC3/NCOR2): < 4.52
- pIC50 (HDAC8): < 4.52
- pIC50 (HDAC4): < 4.52
- Cmax [1]: 697 ng/mL
- half-life [1]: 23.2 h
- pIC50 (HDAC9): < 4.52
- pIC50 (HDAC7): < 4.52
- pIC50 (HDAC2): < 4.52
- pIC50 (HDAC11): < 4.52

Compound: CS(=O)(=O)NCC(Nc1ncc(-c2nnc(C(F)F)o2)cn1)c1ccc(OC(F)(F)F)cc1 (single isomer, unassigned) [122(+), N-(2-((5-(5-(difluoromethyl)-1,3,4-oxadiazol-2-yl)pyrimidin-2-yl)amino)-2-(4-(trifluoromethoxy)phenyl)ethyl)methanesulfonamide]
- pIC50 (HDAC5): < 4.52
- pIC50 (HDAC1; read-out: Human HDAC1 IC50): < 4.52
- pIC50 (HDAC1; [2]): < 4.52
- pIC50 (HDAC10): < 4.52
- pIC50 (HDAC6; read-out: Human HDAC6 IC50): 7.51
- pIC50 (HDAC6; [3]): 7.51
- pIC50 (HDAC3/NCOR2): < 4.52
- pIC50 (HDAC8): < 4.52
- pIC50 (HDAC4): 5.08
- Cmax [1]: 2930 ng/mL
- half-life [1]: 18.4 h
- pIC50 (HDAC9): < 4.52
- pIC50 (HDAC7): 4.57
- pIC50 (HDAC2): < 4.52
- pIC50 (HDAC11): < 4.52

Compound: O=S(=O)(NCC(Nc1ncc(-c2nnc(C(F)F)o2)cn1)c1ccc(F)cc1)C1CC1 (stereo not drawn) [Example 110, N-(2-((5-(5-(difluoromethyl)-1,3,4-oxadiazol-2-yl)pyrimidin-2-yl)amino)-2-(4-fluorophenyl)ethyl)cyclopropanesulfonamide]
- pIC50 (HDAC5): < 4.52
- pIC50 (HDAC1; read-out: Human HDAC1 IC50): < 4.52
- pIC50 (HDAC1; [2]): < 4.52
- pIC50 (HDAC10): < 4.52
- pIC50 (HDAC6; read-out: Human HDAC6 IC50): 7.55
- pIC50 (HDAC6; [3]): 7.55
- pIC50 (HDAC3/NCOR2): < 4.52
- pIC50 (HDAC8): < 4.52
- pIC50 (HDAC4): < 4.52
- Cmax [1]: 830 ng/mL
- half-life [1]: 4.3 h
- pIC50 (HDAC9): < 4.52
- pIC50 (HDAC7): < 4.52
- pIC50 (HDAC2): < 4.52
- pIC50 (HDAC11): < 4.52

Other lines, results leading:

- pIC50 (HDAC5): < 4.52
- pIC50 (HDAC1; read-out: Human HDAC1 IC50): < 4.52
- pIC50 (HDAC1; [2]): < 4.52
- pIC50 (HDAC10): < 4.52
- pIC50 (HDAC6; read-out: Human HDAC6 IC50): 7.82
- pIC50 (HDAC6; [3]): 7.82
- pIC50 (HDAC3/NCOR2): < 4.52
- pIC50 (HDAC8): < 4.52
- pIC50 (HDAC4): < 4.52
- Cmax [1]: 1110 ng/mL
- half-life [1]: 2.7 h
- pIC50 (HDAC9): < 4.52
- pIC50 (HDAC7): 4.78
- pIC50 (HDAC2): < 4.52
- pIC50 (HDAC11): < 4.52
Compound: CS(=O)(=O)NCC(Nc1ncc(-c2nnc(C(F)F)o2)cn1)c1ccc(F)cc1 (single isomer, unassigned) [38(+), N-(2-((5-(5-(difluoromethyl)-1,3,4-oxadiazol-2-yl)pyrimidin-2-yl)amino)-2-(4-fluorophenyl)ethyl) methanesulfonamide]

- pIC50 (HDAC5): < 4.52
- pIC50 (HDAC1; read-out: Human HDAC1 IC50): < 4.52
- pIC50 (HDAC1; [2]): < 4.52
- pIC50 (HDAC10): < 4.52
- pIC50 (HDAC6; read-out: Human HDAC6 IC50): 7.74
- pIC50 (HDAC6; [3]): 7.74
- pIC50 (HDAC3/NCOR2): < 4.52
- pIC50 (HDAC8): < 4.52
- pIC50 (HDAC4): 4.97
- Cmax [1]: 656 ng/mL
- half-life [1]: 4.3 h
- pIC50 (HDAC9): < 4.52
- pIC50 (HDAC7): 4.92
- pIC50 (HDAC2): < 4.52
- pIC50 (HDAC11): < 4.52
Compound: CS(=O)(=O)NCC(Nc1ncc(-c2nnc(C(F)F)o2)cn1)c1ccc(OC(F)F)cc1 (single isomer, unassigned) [115(+), N-(2-(4-(difluoromethoxy)phenyl)-2-((5-(5-(difluoromethyl)-1,3,4-oxadiazol-2-yl)pyrimidin-2-yl)amino)ethyl)methanesulfonamide]
